Where a name gives a salt, the structure may show the parent alone.
Biological target: T1, His-EBNA1 (DNA binding domain of EBNA1, amino acids 459-607) (Epstein-Barr virus, UniProt P03211)
T1 construct: made in house; host or cells: E. coli
Assay: Inhibition of 5′-biotin-oPL4624 binding to His-EBNA1 using Alpha Screen technology
Settings: Alpha Screen Activity (IC50, inhibition of 5′-biotin-oPL4624 binding to His-EBNA1), 15 nM His-EBNA1, 0.2 nM bt-oPL4624, 2 hr room temperature
How it was run: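 His-tagged EBNA1 DNA-binding domain (aa 459-607, E. coli-expressed) at 15 nM with 0.2 nM biotinylated self-complementary oligo, streptavidin donor and nickel acceptor beads, in 25 mM Tris pH 7.2, 160 mM NaCl, 1 mM MgCl2. Compound 3.2 nM-100 μM final; AlphaScreen read after 2 h at room temperature, one-site dose-response fit.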

T1 sequence (P03211 459-607): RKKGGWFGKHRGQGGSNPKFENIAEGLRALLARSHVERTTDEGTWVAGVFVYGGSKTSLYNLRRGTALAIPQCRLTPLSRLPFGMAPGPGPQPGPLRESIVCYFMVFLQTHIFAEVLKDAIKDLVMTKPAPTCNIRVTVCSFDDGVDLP

| Compound | IC50 [µM] |
| --- | --- |
| Cc1ccc(C)n1-c1c(C#CC(O)c2ccccc2)cccc1C(=O)O (stereo not shown) [Entry 197, 2-(2,5-dimethyl-pyrrol-1-yl)-3-(3-hydroxy-3-phenyl-prop-1-ynyl)-benzoic acid] | 10 to 100 |
| CC(C)(O)C#Cc1cccc(C(=O)O)c1-n1cccc1 [Entry 63, 3-(3-hydroxy-3-methylbut-1-yn-1-yl)-2-(1H-pyrrol-1-yl)benzoic acid] | < 1 |
| Cc1noc(C)c1-c1c(C#Cc2ccncc2)cccc1C(=O)O [Entry 189, 2-(3,5-dimethyl-isoxazol-4-yl)-3-pyridin-4-ylethynyl-benzoic acid] | 10 to 100 |
| O=C(O)c1cccc(C#Cc2ccncc2)c1 [Entry 93, 3-[2-(pyridin-4-yl)ethynyl]benzoic acid] | 1 to 10 |
| O=C(O)c1cccc(C#Cc2ccncc2)c1-n1cccc1 [Entry 68, 3-[2-(pyridin-4-yl)ethynyl]-2-(1H-pyrrol-1-yl)benzoic acid] | < 1 |
| O=C(O)c1cccc(C#Cc2cccc(O)c2)c1-c1ccc2c(c1)NCC2 [Entry 238, 3-((3-hydroxyphenyl)ethynyl)-2-(indolin-6-yl)benzoic acid] | 1 to 10 |
| Cn1cncc1C#Cc1cccc(C(=O)O)c1-n1cccc1 [Entry 26, 3-[2-(1-methyl-1H-imidazol-5-yl)ethynyl]-2-(1H-pyrrol-1-yl)benzoic acid] | 10 to 100 |
| CC(=O)Nc1cccc(C#Cc2cccc(C(=O)O)c2-c2ccc3cc[nH]c3c2)c1 [Entry 230, 3-((3-Acetamidophenyl)ethynyl)-2-(1H-indol-6-yl)benzoic acid] | < 1 |
| O=C(O)c1cccc(C#Cc2ccccc2)c1-c1ccc2cnccc2c1 [Entry 203, 2-isoquinolin-6-yl-3-phenylethynyl-benzoic acid] | 10 to 100 |
| O=C(O)c1cccc(CCc2ccccc2)c1-n1cccc1 [Entry 147, 3-(2-phenylethyl)-2-(1H-pyrrol-1-yl)benzoic acid] | 10 to 100 |
| O=C(O)c1cccc(C#CCO)c1-c1ccccc1 [Entry 161, 3-(3-hydroxyprop-1-yn-1-yl)-2-phenylbenzoic acid] | 100 to 1000 |
| Cn1ccc2cc(-c3c(C#Cc4cccc(O)c4)cccc3C(=O)O)ccc21 [Entry 263, 3-[2-(3-hydroxyphenyl)ethynyl]-2-(1-methyl-1H-indol-5-yl)benzoic acid] | 1 to 10 |
| O=C(O)c1cccc(C#Cc2c[nH]c3ccccc23)c1 [Entry 182, 3-(1H-indol-3-ylethynyl)-benzoic acid] | 10 to 100 |
| CN(C)C(=O)c1cccc(C#Cc2cccc(C(=O)O)c2)c1 [Entry 288, 3-(3-dimethylcarbamoyl-phenylethynyl)-benzoic acid] | 100 to 1000 |
| C(#Cc1c[nH]c2ncccc12)c1cccc(-c2nnn[nH]2)c1 [Entry 281, 3-[3-(1H-tetrazol-5-yl)-phenylethynyl]-1H-pyrrolo[2,3-b]pyridine] | 10 to 100 |
| O=C(O)c1cccc(C#Cc2cccc3cc[nH]c23)c1-n1cccc1 [Entry 18, 3-[2-(1H-indol-7-yl)ethynyl]-2-(1H-pyrrol-1-yl)benzoic acid] | < 1 |
| O=C(O)c1cccc(C#Cc2ccccc2)c1-c1ccncc1 [Entry 97, 3-(2-phenylethynyl)-2-(pyridin-4-yl)benzoic acid trifluoroacetic acid salt] | 10 to 100 |
| O=C(O)c1cccc(C#Cc2cnc3cnccn23)c1-c1cnc2ccccc2c1 [Entry 143, 3-(imidazo[1,2-a]pyrazin-3-ylethynyl)-2-(quinolin-3-yl)benzoic acid] | 1 to 10 |
| O=C(O)c1cccc(C#Cc2cccc(C(=O)N3CCN(c4ccccc4)CC3)c2)c1 [Entry 290, 3-[3-(4-phenyl-piperazine-1-carbonyl)-phenylethynyl]-benzoic acid] | 10 to 100 |
| CC(=O)Nc1cccc(C#Cc2cccc(C(=O)O)c2-n2c(C)ccc2C)c1 [Entry 198, 3-(3-acetylamino-phenylethynyl)-2-(2,5-dimethyl-pyrrol-1-yl)-benzoic acid] | 10 to 100 |
| Cc1ccc(C)n1-c1c(C#Cc2ccccc2)cccc1C(=O)O [Entry 50, 2-(2,5-dimethyl-1H-pyrrol-1-yl)-3-(2-phenylethynyl)benzoic acid] | < 1 |
| Cn1ncc2ccc(-c3c(C#Cc4cscn4)cccc3C(=O)O)cc21 [Entry 170] | 1 to 10 |
| O=C(O)c1cccc(C#Cc2c[nH]c3ccccc23)c1-n1cccc1 [Entry 2, 3-(1H-indol-3-ylethynyl)-2-pyrrol-1-yl-benzoic acid] | < 1 |
| O=C(O)c1cccc(C#Cc2ccncc2)c1-c1ccc2cc[nH]c2c1 [Entry 259, 2-(1H-indol-6-yl)-3-[2-(pyridin-4-yl)ethynyl]benzoic acid; trifluoroacetate salt] | 1 to 10 |
| O=C(O)c1cccc(C#Cc2c[nH]c3ncccc23)c1F [Entry 86, 2-fluoro-3-(2-{1H-pyrrolo[2,3-b]pyridin-3-yl}ethynyl)benzoic acid] | 10 to 100 |

| Compound | IC50 [µM] |
| --- | --- |
| COC/C=C/c1cccc(C(=O)O)c1-n1cccc1 [Entry 144, 3-[(1E)-3-methoxyprop-1-en-1-yl]-2-(1H-pyrrol-1-yl)benzoic acid] | 1 to 10 |
| O=C(O)c1cccc(C#Cc2ccccc2)c1N1CCNCC1 [Entry 107, 3-(phenylethynyl)-2-(piperazin-1-yl)benzoic acid] | 10 to 100 |
| Cc1ncc(S(=O)(=O)NCc2ccc(C#Cc3cccc(C(=O)O)c3-n3cccc3)cc2)n1C [Entry 164] | 1 to 10 |
| O=C(O)c1cccc(C#Cc2ccccc2)c1C1=CCNCC1 [Entry 96, 3-(2-phenylethynyl)-2-(1,2,3,6-tetrahydropyridin-4-yl)benzoic acid trifluoroacetic acid salt] | 1 to 10 |
| O=C(O)c1cccc(C#Cc2c[nH]c3ncccc23)c1-n1cccc1 [Entry 34, 2-(1H-pyrrol-1-yl)-3-(2-{1H-pyrrolo[2,3-b]pyridin-3-yl}ethynyl)benzoic acid] | < 1 |
| CC(=O)NS(=O)(=O)c1cccc(C#Cc2ccccc2)c1-n1cccc1 [Entry 153, N-Acetyl-3-phenylethynyl-2-pyrrol-1-yl-benzenesulfonamide] | 10 to 100 |
| Cn1ccnc1C#Cc1cccc(C(=O)O)c1-n1cccc1 [Entry 27, 3-[2-(1-methyl-1H-imidazol-2-yl)ethynyl]-2-(1H-pyrrol-1-yl)benzoic acid] | 10 to 100 |
| Cc1ccc(-c2c(C#Cc3cccc(O)c3)cccc2C(=O)O)cc1 [Entry 261, 3-[2-(3-hydroxyphenyl)ethynyl]-2-(4-methylphenyl)benzoic acid] | 10 to 100 |
| O=C(O)c1cccc(C#Cc2cccc(NS(=O)(=O)c3cccs3)c2)c1-c1ccc2cc[nH]c2c1 [Entry 235, 2-(1H-indol-6-yl)-3-((3-(thiophene-2-sulfonamido)phenyl)ethynyl)benzoic acid] | < 1 |
| O=C(O)c1cccc(C#Cc2ccccc2)c1-c1ccccc1S(=O)(=O)NCCO [Entry 137, 2-{2-[(2-hydroxyethyl)sulfamoyl]phenyl}-3-(2-phenylethynyl)benzoic acid] | 10 to 100 |
| CCCCC(CC)C(O)C#Cc1cccc(C(=O)O)c1-n1cccc1 (stereo not shown) [Entry 55, 3-(4-ethyl-3-hydroxyoct-1-yn-1-yl)-2-(1H-pyrrol-1-yl)benzoic acid] | < 1 |
| CS(=O)(=O)Nc1cccc(-c2c(C#Cc3cccc(O)c3)cccc2C(=O)O)c1 [Entry 265, 3-[2-(3-hydroxyphenyl)ethynyl]-2-(3-methanesulfonamidophenyl)benzoic acid] | 10 to 100 |
| O=C(O)c1cccc(C#Cc2ccncc2)c1-n1cnc2ccccc21 [Entry 300, 2-benzoimidazol-1-yl-3-pyridin-4-ylethynyl-benzoic acid] | 10 to 100 |
| O=C(O)c1cccc(C#Cc2cccc(O)c2)c1-c1ccc2cn[nH]c2c1 [Entry 222, 3-((3-hydroxyphenyl)ethynyl)-2-(1H-indazol-6-yl)benzoic acid] | 1 to 10 |
| O=C(O)c1cccc(C#Cc2ccccc2)c1-c1cccc2cccnc12 [Entry 205, 3-phenylethynyl-2-quinolin-8-yl-benzoic acid] | 10 to 100 |
| Cn1ccc2c(C#Cc3cccc(C(=O)O)c3-n3cccc3)cccc21 [Entry 15, 3-[2-(1-methyl-1H-indol-4-yl)ethynyl]-2-(1H-pyrrol-1-yl)benzoic acid] | < 1 |
| COc1cc(-c2c(C#Cc3cccc(O)c3)cccc2C(=O)O)ccc1N [Entry 244, 4′-Amino-6-((3-hydroxyphenyl)ethynyl)-5′-methoxybiphenyl-2-carboxylic acid] | 10 to 100 |
| O=C(O)c1cccc(C#CCNCCCn2ccnc2)c1-c1ccccc1 [Entry 158, 3-(3-{[3-(1H-imidazol-1-yl)propyl]amino}prop-1-yn-1-yl)-2-phenylbenzoic acid] | 10 to 100 |
| CC(=O)Nc1cc(F)cc(C#Cc2cccc(C(=O)O)c2-c2ccc3cc[nH]c3c2)c1 [Entry 236, 3-((3-acetamido-5-fluorophenyl)ethynyl)-2-(1H-indol-6-yl)benzoic acid] | < 1 |
| Cc1ccc(C)n1-c1c(C#Cc2c[nH]c3ncccc23)cccc1C(=O)O [Entry 196, 2-(2,5-dimethyl-pyrrol-1-yl)-3-(1H-pyrrolo[2,3-b]pyridin-3-ylethynyl)-benzoic acid] | 1 to 10 |
| O=C(O)c1cccc(C#Cc2ccncc2)c1-n1ccc2ccccc21 [Entry 291, 2-indol-1-yl-3-pyridin-4-ylethynyl-benzoic acid] | 10 to 100 |
| O=C(O)c1cccc(C#Cc2cnc3ccccn23)c1-n1cccc1 [Entry 12, 3-(2-{imidazo[1,2-a]pyridin-3-yl}ethynyl)-2-(1H-pyrrol-1-yl)benzoic acid] | < 1 |
| O=C(O)c1cccc(C#Cc2cscn2)c1 [Entry 75, 3-[2-(1,3-thiazol-4-yl)ethynyl]benzoic acid] | 10 to 100 |
| O=C(O)c1cccc(C#CC(O)c2ccccc2)c1-c1ccc2cc[nH]c2c1 (stereo not shown) [Entry 247, 3-(3-hydroxy-3-phenylprop-1-ynyl)-2-(1H-indol-6-yl)benzoic acid] | < 1 |
